Assay results: publication PMC12030627, “Radioiodinated Bicyclic RGD Peptide Derivatives for Enhanced Tumor Accumulation” (Pharmaceuticals, 2025)
Read-outs that look alike come from different tables or passages of the source.

How the values were obtained:
[1] = Biodistribution in A549 and U-87 MG co-implantation mice; format: in vivo, BALB/c nu-nu mice; details: male, BALB/c nu-nu, mouse, iv, 37 kBq, total radioactivity, U-87 MG and A549 co-implanted mice, mean ± SD, n = 4
Procedure: (§1) Animal experiments were performed in compliance with institutional animal care regulations, with the study protocol approved by the Experimental Animal Committee of Osaka Medical and Pharmaceutical University (Approval Numbers: 21–76, 22–76, and 23–76). Four-week-old male BALB/c nu-nu mice (Japan SLC, Shizuoka, Japan) were housed under a 12 h light/12 h dark cycle with free access to food and water. Tumor-bearing mice were established by suspending U-87 MG cells (2 × 10^6 cells/mouse) in PBS(–) and subcutaneously injecting 100 μL of the suspension into the right hind leg. For co-implantation models, A549 cells (2 × 10^6 cells/mouse) were suspended in PBS(–) and inoculated (100 μL) into the left hind leg of the same mice already inoculated with U-87 MG cells. Mice with tumor size approximately 10 mm in diameter, 4–5 weeks after inoculation, were used for biodistribution studies. Animals in which either tumor was not viable were excluded from the experiment.
(§2) U-87 MG-bearing mice (n = 42, 8–9 weeks old; 22–27 g) were randomly assigned into groups and administered [^125I]bcRGDpal or [^125I]bcRGDiba via intravenous injection (37 kBq in 100 μL of PBS containing 0.1% Tween 80 (PBS-T80)). At 5 min, 30 min, 1 h, 2 h, 6 h, 12 h, or 24 h post-injection, the mice were euthanized (n = 3 per time point). The heart, kidneys, liver, brain, pancreas, spleen, lung, small intestine, large intestine, muscle, skin, stomach, bone, and tumors were excised. Each organ’s weight and radioactivity were measured by a NaI well-type scintillation counter, and the % ID/g was calculated. To investigate the correlation between integrin expression and radioactivity accumulation, biodistribution at 2 h after administration of [^125I]bcRGDpal or [^125I]bcRGDiba was assessed in A549 and U-87 MG co-implantation mice (n = 5) using the same procedure. Additionally, co-implantation mice were injected with [^125I]bcRGDdimer (37 kBq/100 μL PBS-T80) and euthanized at 30 min, 2 h, and 4 h post-injection (n = 4 per time point), and % ID/g values were calculated as described above. The minimum sample size needed for the biodistribution study in U-87 MG-bearing mice was calculated using G Power software version 3.1.9.7. The calculation was based on a two-tailed test, with an effect size of 3.9, a significance level (α) of 0.05, and a statistical power (1 − β) of 0.8. […] The minimum required sample size for the biodistribution study in A549 and U-87 MG co-implantation mice was also calculated to be four animals per group (effect size = 2.5, α = 0.05, 1 − β = 0.8). To guarantee objective results, the experiment was carried out in a blinded manner. Specifically, drug administration and radioactivity measurements were conducted by different investigators to eliminate potential bias.

[2] = tested on: A549 and U-87 MG co-implantation mice; assay: as above; format: in vivo, BALB/c nu-nu mice
Procedure: as §1, §2

[3] = 30 min after i.v. administration, U-87 MG and A549 co-implanted mice, mean ± SD, n = 4
[4] = 2 h after i.v. administration, U-87 MG and A549 co-implanted mice, mean ± SD, n = 4
[5] = 4 h after i.v. administration, U-87 MG and A549 co-implanted mice, mean ± SD, n = 4

- tissue uptake at 0.5 h ([1]; A549 tumor, 30 min after i.v. administration, read-out: Radioactivity in A549 tumor): 1.7 ± 0.6 %ID/g
- tissue uptake at 2 h ([1]; A549 tumor, 2 h after i.v. administration, read-out: Radioactivity in A549 tumor): 0.8 ± 0.2 %ID/g
- tissue uptake at 4 h ([1]; A549 tumor, 4 h after i.v. administration, read-out: Radioactivity in A549 tumor): 0.4 ± 0.1 %ID/g
- tissue uptake at 0.5 h ([1]; U-87 MG tumor, 30 min after i.v. administration, read-out: Radioactivity in U-87 MG tumor): 7.5 ± 0.8 %ID/g
- tissue uptake at 2 h ([1]; U-87 MG tumor, 2 h after i.v. administration, read-out: Radioactivity in U-87 MG tumor): 4.2 ± 1.1 %ID/g
- tissue uptake at 4 h ([1]; U-87 MG tumor, 4 h after i.v. administration, read-out: Radioactivity in U-87 MG tumor): 2.9 ± 0.4 %ID/g
- tissue uptake at 2 h ([1]; blood, 2 h after i.v. administration, read-out: Radioactivity in blood): 0.3 %ID/g
- tissue uptake at 0.5 h ([1]; bone, 30 min after i.v. administration, read-out: Radioactivity in bone): 1.5 ± 0.3 %ID/g
- tissue uptake at 2 h ([1]; bone, 2 h after i.v. administration, read-out: Radioactivity in bone): 0.9 ± 0.3 %ID/g
- tissue uptake at 4 h ([1]; bone, 4 h after i.v. administration, read-out: Radioactivity in bone): 0.4 %ID/g
- tissue uptake at 0.5 h ([1]; brain, 30 min after i.v. administration, read-out: Radioactivity in brain): 0.1 %ID/g
- tissue uptake at 0.5 h ([1]; heart, 30 min after i.v. administration, read-out: Radioactivity in heart): 0.6 ± 0.1 %ID/g
- tissue uptake at 2 h ([1]; heart, 2 h after i.v. administration, read-out: Radioactivity in heart): 0.2 %ID/g
- tissue uptake at 4 h ([1]; heart, 4 h after i.v. administration, read-out: Radioactivity in heart): 0.1 %ID/g
- tissue uptake at 0.5 h ([1]; kidneys, 30 min after i.v. administration, read-out: Radioactivity in kidneys): 10.9 ± 2.6 %ID/g
- tissue uptake at 2 h ([1]; kidneys, 2 h after i.v. administration, read-out: Radioactivity in kidneys): 2 ± 0.2 %ID/g
- tissue uptake at 4 h ([1]; kidneys, 4 h after i.v. administration, read-out: Radioactivity in kidneys): 0.9 ± 0.2 %ID/g
- tissue uptake at 0.5 h ([1]; large intestine, 30 min after i.v. administration, read-out: Radioactivity in large intestine): 0.4 ± 0.2 %ID/g
- tissue uptake at 2 h ([1]; large intestine, 2 h after i.v. administration, read-out: Radioactivity in large intestine): 5.5 ± 1 %ID/g
- tissue uptake at 4 h ([1]; large intestine, 4 h after i.v. administration, read-out: Radioactivity in large intestine): 5.5 ± 1.4 %ID/g
- tissue uptake at 0.5 h ([1]; liver, 30 min after i.v. administration, read-out: Radioactivity in liver): 0.9 ± 0.1 %ID/g
- tissue uptake at 2 h ([1]; liver, 2 h after i.v. administration, read-out: Radioactivity in liver): 0.5 ± 0.1 %ID/g
- tissue uptake at 4 h ([1]; liver, 4 h after i.v. administration, read-out: Radioactivity in liver): 0.3 ± 0.1 %ID/g
- tissue uptake at 0.5 h ([1]; lung, 30 min after i.v. administration, read-out: Radioactivity in lung): 2.9 ± 0.5 %ID/g
- tissue uptake at 2 h ([1]; lung, 2 h after i.v. administration, read-out: Radioactivity in lung): 1.2 ± 0.3 %ID/g
- tissue uptake at 4 h ([1]; lung, 4 h after i.v. administration, read-out: Radioactivity in lung): 0.4 ± 0.1 %ID/g
- tissue uptake at 0.5 h ([1]; muscle, 30 min after i.v. administration, read-out: Radioactivity in muscle): 0.7 ± 0.1 %ID/g
- tissue uptake at 2 h ([1]; muscle, 2 h after i.v. administration, read-out: Radioactivity in muscle): 0.2 %ID/g
- tissue uptake at 4 h ([1]; muscle, 4 h after i.v. administration, read-out: Radioactivity in muscle): 0.1 %ID/g
- tissue uptake at 0.5 h ([1]; pancreas, 30 min after i.v. administration, read-out: Radioactivity in pancreas): 0.5 ± 0.1 %ID/g
- tissue uptake at 2 h ([1]; pancreas, 2 h after i.v. administration, read-out: Radioactivity in pancreas): 0.2 ± 0.1 %ID/g
- tissue uptake at 4 h ([1]; pancreas, 4 h after i.v. administration, read-out: Radioactivity in pancreas): 0.1 %ID/g
- tissue uptake at 0.5 h ([1]; small intestine, 30 min after i.v. administration, read-out: Radioactivity in small intestine): 3.6 ± 0.6 %ID/g
- tissue uptake at 2 h ([1]; small intestine, 2 h after i.v. administration, read-out: Radioactivity in small intestine): 2.3 ± 1 %ID/g
- tissue uptake at 4 h ([1]; small intestine, 4 h after i.v. administration, read-out: Radioactivity in small intestine): 1.6 ± 0.4 %ID/g
- tissue uptake at 0.5 h ([1]; spleen, 30 min after i.v. administration, read-out: Radioactivity in spleen): 0.7 ± 0.2 %ID/g
- tissue uptake at 2 h ([1]; spleen, 2 h after i.v. administration, read-out: Radioactivity in spleen): 0.3 ± 0.1 %ID/g
- tissue uptake at 4 h ([1]; spleen, 4 h after i.v. administration, read-out: Radioactivity in spleen): 0.2 %ID/g
- tissue uptake dose at 0.5 h ([1]; stomach, 30 min after i.v. administration): 0.6 ± 0.5 %ID
- tissue uptake dose at 2 h ([1]; stomach, 2 h after i.v. administration): 0.2 %ID
- tissue uptake dose at 4 h ([1]; stomach, 4 h after i.v. administration): 0.3 ± 0.3 %ID
- tissue uptake at 0.5 h ([1]; whole blood, 30 min after i.v. administration, read-out: Radioactivity in blood): 1.1 ± 0.1 %ID/g
- tissue uptake at 2 h ([1]; whole blood, 2 h after i.v. administration, read-out: Radioactivity in blood): 0.3 ± 0.1 %ID/g
- tissue uptake at 4 h ([1]; whole blood, 4 h after i.v. administration, read-out: Radioactivity in blood): 0.2 ± 0.1 %ID/g
- Radioactivity in thyroid [2, 3]: 0.0 ± 0.0 % injected dose
- U87/Muscle radioactivity ratio [2, 3]: 7.1 ± 1.8
- Radioactivity in thyroid [2, 4]: 0.0 ± 0.0 % injected dose
- U87/Blood radioactivity ratio [2, 4]: 22
- U87/Muscle radioactivity ratio [2, 4]: 13.9 ± 6.8
- Lung-to-blood radioactivity ratio ([2]; 2 h post-administration): 3.7
- Accumulation ratio U87/A549 ([2]; 2 h post-administration, co-implanted mice): 5.4
- Radioactivity in thyroid [2, 5]: 0.0 ± 0.0 % injected dose
- U87/Muscle radioactivity ratio [2, 5]: 10.3 ± 2.5
Compound: N=C(N)NCCC[C@@H]1NC(=O)[C@H]2CSCc3cc(cc(c3)CSC[C@H](C(N)=O)NC(=O)[C@H](CC(=O)O)NC(=O)CNC1=O)CSC[C@H](NC(=O)CNC(=O)[C@H](CO)NC(=O)c1ccc(NC(=O)CNC(=O)[C@H](CO)NC(=O)[C@@H]3CCCN3C(=O)[C@@H]3CCCN3C(=O)[C@@H]3CCCN3C(=O)CCc3cn(CC[C@H](NC(=O)CCNC(=O)c4cccc(I)c4)C(=O)N4CCC[C@H]4C(=O)N4CCC[C@H]4C(=O)N4CCC[C@H]4C(=O)N[C@@H](CO)C(=O)NCC(=O)Nc4ccc(C(=O)N[C@@H](CO)C(=O)NCC(=O)N[C@H]5CSCc6cc7cc(c6)CSC[C@@H](NC(=O)[C@H](CCC(N)=O)NC(=O)[C@@H]6CCCN6C(=O)[C@H](Cc6c[nH]cn6)NC5=O)C(=O)N[C@@H](CCCNC(=N)N)C(=O)NCC(=O)N[C@@H](CC(=O)O)C(=O)N[C@@H](C(N)=O)CSC7)cc4)nn3)cc1)C(=O)N[C@@H](Cc1c[nH]cn1)C(=O)N1CCC[C@H]1C(=O)N[C@@H](CCC(N)=O)C(=O)N2 [[^125I]bcRGDdimer]
- Radioactivity in brain [2, 4]: 0.0 ± 0.0 % injected dose per gram of tissue
- Radioactivity in brain [2, 5]: 0.0 ± 0.0 % injected dose per gram of tissue
